From patent publication US8946201B2, “Methods for inhibiting TGF-β” (Saint Louis University, priority 2007, dated 2015)

How the values were obtained:
[1] = system: TβR-I and TβR-II; assay: 125I-TGF-β1 affinity labeling, CHO-K1 cells; assay type: cell-based, Chinese hamster; details: 1 μM, 37° C. 16 hr, 0.12 untreated
Protocol: (§1) (A, B, C, D, E, F) Cells were treated with LDL (50 μg protein/ml), VLDL (5 μg protein/ml), HDL (50 μg protein/ml), lipoprotein (a) (10 μg/ml), fluvastatin (F; 1 μM), lovastatin (L; 1 μM), nystatin (Nys; 25 μg/ml), β-CD (β-CD; 8 mM), cholest-4-en-3-one (3-one; 50 μg/ml) or cholesterol (Chol; 50 μg/ml) alone or combination of two. After 1 hr at 37° C. or 16 hr at 37° C. (for fluvastatin and lovastatin), ^125I-TGF-β1 affinity labeling of cell-surface TGF-β receptors was performed at 0° C. ^125I-TGF-β1 affinity-labeled TβR-I and TβR-II were analyzed by 7.5% SDS-PAGE and autoradiography. The relative intensities of TβR-I and TβR-II were quantified with a PhosphoImager. The ratio of ^125I-TGF-β1 binding to TβR-II and TβR-I were estimated. The numbers above the lane sequence denote the ratio of TβR-II/TβR-I.
After cross-linking, cell lysates were analyzed by 7.5% SDS-PAGE and autoradiography or quantified by a PhosphoImager. For all experiments, cholesterol or cholesterol derivatives were prepared as the stock solution with a concentration of 25 mg/ml in ethanol. The final concentration of ethanol in the medium was 0.2% (by vol.). […]

[2] = system: TβR-I and TβR-II; assay: Western blot of TβR-I and TβR-II protein levels, Mv1Lu cells; assay type: cell-based, mink; details: 37° C. for 16 hr; versus cholesterol-treated and control cells
Protocol: Cells grown to near confluence on 12-well cluster dishes were treated with cholesterol or LDL in serum-free DMEM (vol.=0.5 ml/well) at 37° C. for 1 hr. The treated cells were further incubated with 50 or 100 pM TGF-β1 at 37° C. for 30 min (for determining Smad2 phosphorylation) or for 2 hr (for determining TβR-II). Treated cells were lysed and cell lysates were analyzed by 7.5% SDS-PAGE and Western blot analysis using anti-Smad2, anti-P-Smad2, anti-caveolin-1, anti-TβR-I (alk5) or anti-TβR-II antibodies as described previously (30). The antigens on the blots were visualized by using horseradish peroxidase-conjugated anti-rabbit IgG antibody and the ECL system as described (30).
To determine if cholesterol suppresses TGF-β responsiveness by decreasing the ratio of TGF-β1 binding to TβR-II and TβR-I, we first determined the time course of the effect of cholesterol treatment on the ratio of ^125I-TGF-β1 binding to TβR-II and TβR-I in Mv1Lu cells. These cells were treated with 50 μg/ml cholesterol at 37° C. for several time periods. ^125I-TGF-β1 binding to TGF-β receptors was then determined by affinity labeling using the bifunctional cross-linking agent DSS (disuccinimidyl suberate) followed by 7.5% SDS-PAGE and autoradiography or quantified with a PhosphoImager. […] We then performed analysis of the effect of cholesterol treatment on TGF-β1 binding to TβR-I and TβR-II in several cell types. Mv1Lu, BAEC, and NRK cells were treated for 1 hr with increasing concentrations of cholesterol in the presence and absence of 0.2% β-cyclodextrin (β-CD, which forms water-soluble complexes with cholesterol) at 37° C. The binding of TGF-β1 to TβR-I and TβR-II in these cells was then determined by ^125I-TGF-β1 affinity labeling at 0° C.

[3] = system: PAI-1 expression; assay: TGF-β1-induced PAI-1 expression, Northern blot, Mv1Lu cells; assay type: cell-based, mink; details: Mv1Lu cells
Protocol: (A, B, C, D, E, F) Cells were treated with 50 μg/ml cholesterol (A, B, C, D) and 50 μg/ml LDL (D) at 37° C. for 1 hr or with 1 μM fluvastatin or lovastatin (E) or several concentrations of fluvastatin (F) at 37° C. for 16 hr and then further incubated with increasing concentrations (as indicated) of TGF-β1 (A, B, C, E) or 50 pM TGF-β1 (D,F) for 2 hr. Northern blot analysis of PAI-1 and G3PDH was performed. A representative of a total of three analyses is shown (a). The relative intensities of the transcripts were quantified with a PhosphoImager. The ratio of the relative intensities of PAI-1 and G3PDH transcripts in cells treated without TGF-β1 and cholesterol, LDL or statins on the blot was taken as 1 fold or 100% of PAI-1 expression. The quantitative data from three independent analyses is shown (b). […] (G) Mv1Lu cells stably expressing a luciferase reporter gene driven by the PAI-1 promoter (MLECs-clone 32) were treated with increasing concentrations (as indicated) of cholesterol at 37 EC for 1 hr (a) or with 1 μM lovastatin at 37° C. for 16 hr (b) and then further incubated with 50 pM TGF-β for 7 hr. The luciferase activity in cells treated without cholesterol was taken as 100% (a). […] (H) Cells were incubated with 0.0625 and 0.125 pM TGF-β1 in the presence of increasing concentrations of cholesterol, as indicated. […] The experiments were carried out in triplicate.

[4] = system: TβR-I and TβR-II; assay: 125I-TGF-β1 affinity labeling, Mv1Lu cells; assay type: cell-based, mink; details: 1 μM, 37° C. 16 hr; Mv1Lu cells; 0.88 untreated
Protocol: (A) Mv1Lu cells were treated with 50 μg/ml cholesterol at 37° C. After several time periods, as indicated, ^125I-TGF-β1-affinity labeling was performed at 0° C. ^125I-TGF-β1 affinity-labeled TGF-β receptors were analyzed by 7.5% SDS-PAGE and autoradiography (a) and quantified with a PhosphoImager. The bracket indicates the locations of ^125I-TGF-β1 affinity-labeled TβR-I and TβR-II. The ratio of ^125I-TGF-β1 binding to TβR-II and TβR-I is plotted against incubation time (b).
(§2) (B, C, D, E) Cells were treated with increasing concentrations of cholesterol in the presence (C) and absence (B, D, E) of 0.2% β-CD, as indicated. After 1 hr at 37° C., ^125I-TGF-β1 affinity labeling of TβR-I and TβR-II in cells was performed at 0° C. ^125I-TGF-β1 affinity-labeled TβR-I and TβR-II were analyzed by 7.5% SDS-PAGE and autoradiography or quantified with a PhosphoImager. A representative of a total of three analyses is shown (top). The bracket indicates the locations of ^125I-TGF-β affinity-labeled TβR-I and TβR-II. The relative intensities of ^125I-TGF-β1 affinity-labeled TβR-I and TβR-II in cells treated without cholesterol were taken as 100%. The quantitative data from three analyses is shown (bottom).
The bracket indicates the locations of ^125I-TGF-β1 affinity-labeled TβR-I and TβR-II. The relative intensities of ^125I-TGF-β1-TβR-I and ^125I-TGF-β1-TβR-II complexes, which were quantified with a PhosphoImager, are plotted against TGF-β1 concentrations (bottom).
as §1
(G) Mv1Lu cells were treated with 50 μg/ml of cholesterol and cholesterol analogs/derivatives including 25-hydroxycholesterol, 7-dehydrocholesterol (7-DHC), 7-ketocholesterol, 7β, 8β-epoxycholesterol, 7β-hydroxycholesterol, and oxidized 7-dehydrocholesterol (oxy-7DHC). After 1 hr at 37° C., ^125I-TGF-β1 affinity labeling of TGF-β receptors was performed. ^125I-TGF-β1 affinity-labeled TβR-I and TβR-II were analyzed by 7.5% SDS-PAGE and autoradiography. The bracket indicates the locations of ^125I-TGF-β1-affinity-labeled TβR-I and TβR-II. The relative intensities of ^125I-TGF-β1 affinity-labeled TβR-I and TβR-II were determined by a PhosphoImager. The ratios of ^125I-TGF-β1 binding to TβR-II and TβR-I were estimated. The numbers above the lane sequence denote the ratio of TβR-II/TβR-I.
(§3) After cross-linking, cell lysates were analyzed by 7.5% SDS-PAGE and autoradiography or quantified by a PhosphoImager. For all experiments, cholesterol or cholesterol derivatives were prepared as the stock solution with a concentration of 25 mg/ml in ethanol. The final concentration of ethanol in the medium was 0.2% (by vol.).

[5] = system: TβR-I and TβR-II; assay: 125I-TGF-β1 affinity labeling, BAEC; assay type: cell-based, bovine; details: 1 μM, 37° C. 16 hr; BAEC cells; 2.47 untreated
Protocol: as §2, §1, §3

EC50 ([3]; stimulated by 50 pM TGF-β1, read-out: EC50 of enhancement of PAI-1 expression): 500 nM
Structure (SMILES): CC(C)n1c(/C=C/C(O)CC(O)CC(=O)O)c(-c2ccc(F)cc2)c2ccccc21 (stereo not drawn) [fluvastatin, reference compound]
ratio of TβR-II/TβR-I [1]: 0.19
increase of the total amount of TβR-II [2]: ~1.5 fold
enhancement of PAI-1 expression ([3]; 1 μM, 16 hr, 10 pM TGF-β1): 3 fold
ratio of TβR-II/TβR-I [4]: 1.3
ratio of TβR-II/TβR-I [5]: 2.91
